Consider six compounds from patent publication US8524193B2, “Non-invasive diagnostic imaging technology for mitochondria using radiolabeled lipophilic salts” (The Johns Hopkins University, priority 2002, dated 2013).

Several values for one entry are separate records, joined by “and”; a condition that tells them apart may be missing. Equal values may be shown once. Read-outs that look alike come from different tables or passages of the source.

The subject of one data set is FCA-induced inflammation. In words: Accumulation in FCA-induced inflammation tissue and healthy muscle. The format is in vivo, rats. The note with it: for Inf/Control: ratio inflammation tissue to healthy muscle, 3 days after FCA; for Accumulation, Control: rats, healthy muscle, 3 days after administration of FCA. How it is done:
(§1) 0.1 ml of nitrosomethyl urea (NUM) was introduced i.p in female rats (150 g). When tumor reached an approximate size of 1 to 1.5 cm, FCA was injected (0.15 ml) to the hind limb footpad. Uptake assays were carried out 3 days thereafter. F-18-FBnTP (0.25 mCi) was injected via tail vein. Sixty minutes later tumor, inflamed tissue and healthy muscle tissue of the opposite limb (control) were collected on ice, weighed and counted in a gamma counter together with standards.
The accumulation of the novel F-18-phosphonium cations, F-18-FBnTP and F-18-fluoropropyl triphenyl phosphonium (F-18-FPTP) in comparison with F18-FDG in FCA-induced inflammation and healthy tissue is presented in Table 2. Induction of inflammation and activity counting were carried out as described above. Fluorophosphonium compounds accumulate in inflammation much less than FDG (Table 2). These date provide strong evidence to our claim that F-18-phosphonium compound are suitable for differentiation of tumor from inflammation and may resolve a major drawback of F-18-FDG. Table 2: Accumulation of Fluorophosphonium Compounds (FBnTP and FPTP) FDG in inflammation tissue and healthy muscle 3 days after administration of FCA.

The conditions of data set [1]: cited from earlier work.
A short description of data set [2]: C-11-TPMP uptake kinetics in the myocardium (PET). The format is in vivo. The note with it: dog, five-fold increase (by adenosine) in flow. How it is done: We have examined the performance of C-11-triphenyl phosphonium cation (TPMP) for assessing regional myocardial flow in dog using PET (Kraus, 1994).
Methods: Four mCi of C-11-TPMP were introduced i.v., and dynamic images of increasing duration (15 sec to 20 min) were acquired over a total time of 85 min. Images were acquired on the GE 4096+ PET scanner (15 slices, 6.5 mm slice thickness). Images were reconstructed using backprojection, and corrected for attenuation. A detailed description of methods appears in Kraus, 1994. These images show excellent visualization of the myocardium with a high contrast to the surrounding lung tissue. During the plateau time period heart/lung ratio was >14:1, and heart/blood >100:1. Under baseline conditions (flow=69 ml/min/100 g), the extraction fraction is very high (91%). […] To investigate the relationship between myocardial blood flow and C-11-TPMP uptake in the heart, the LAD was occluded and the C-11-TPMP accumulation in tissue samples compared to microsphere determined regional myocardial blood flow. A significant correlation (r=0.93, p<0.01) was found at 5 min after LAD occlusion (FIG. 12). The non-infracted/infracted myocardium ratio was 12.1±2.4. […] Thallium 201 extraction under baseline flow is about 80%, decreasing to about 60% for five-fold increases in flow rate. […]

The test system of data set [3] is Human lung carcinoma H549 cells. In words: Mitochondria membrane potential (MMP)-dependent cellular uptake with CCCP. The format is cell-based. The note with it: CCCP 30, 60, 90, 120 μM, 30 min. How it is done:
The extent of MMP-dependent cellular uptake of F-18-FBnTP was assessed using CCCP, a known protonophore that selectively abolishes the MMP.
Methods: Human lung carcinoma H549 cells ([…]) were incubated with 0.1 μCi/ml F-18-FBnTP for 30 min. Samples of the suspension (1 mL) were transferred to Eppendorf's vials and placed in a 370 C bath. Varying concentrations (30, 60, 90, 120 μM) of CCCP were added to the suspension. After 30 min of incubation with CCCP, the Eppendorf vials were centrifuged for 1 min, and activity in pellet and supernatant was immediately counted.

A short description of data set [4]: F-18-FBnTP myocardial accumulation in pacing model of heart failure (PET). The format is in vivo, mongrel dog. How it is done: Pacing of the mongrel dog heart at high rate (210 bpm) for a four weeks is a well-established model of heart failure. The advantage of this model is that the cardiomyopathy solely involve apoptosis without stenosis of coronary artery or related ischemia. Therefore, in this model the affect of apoptosis on FBnTP uptake can be dissected.
Methods: Preparation of dog and data acquisition was performed as described above. Mongrel dog was installed with a pacemaker in the rib case and underwent FBnTP PET scan (presented above). Following the baseline scan, the dog_s heart was paced at a rate of 210 bpm for 4 weeks and a second scan was acquired.
FIG. 18 depicts co-registered images before and after pacing. […] Quantitation of FBnTP in the myocardium was performed using region of interest placed on co-registered myocardial images, whose activity was normalized to the injected dose, before and after pacing. An example for ROI placement is illustrated in FIG. 18.

Data set [5] in a line: F-18-FBnTP uptake kinetics in the myocardium (PET). The format is in vivo, Mongrel dogs. To be noted: dog PET. How it is done: Methods: Mongrel dogs (BW=35 kg) were injected with 3-4 mCi of F-18-FBnTP. Images were acquired on a GE 4096+ scanner (15 slices, 6.5 mm slice thickness). PET scans of increasing duration (15 sec to 20 min) were acquired over a total time of 85 min post-injection. Arterial blood samples (0.5 ml in volume) were collected every few seconds for the first 3 minutes and at gradually increasing intervals (1 to 10 min) for the remaining time of the imaging study. The vascular and myocardial kinetics of F-18-FBnTP was analyzed using the ROI method.

Data set [6] is described as follows: Stability of fluorination: total bone uptake. The format is in vivo. The note with it: mice, 5 and 30 min p.i., compared to mice injected with F-18 only; listed as F-18-FBnTP. How it is done: Methods: Mice were injected via the tail vein with 25 μCi of F-18-PhC; 5 and 30 min p.i., the left or right femur bone was removed, and bone radioactivity together with standard (1:100 of injected dose) were counted in a gamma counter. A parallel group of mice was injected with free fluorides (F-18). Three mice of each group were studied at each time point. Radioactivity is represented as percentage of injected dosed (% ID) and total bone uptake was calculated as activity in femur bone ×20.

A short description of data set [7]: Stability of F-18-FBnTP in plasma after injection into mice (column switch HPLC). The format is in vivo. How it is done: Radiochemical purity of F-18-FBnTP and its stability in vivo was measured by chromatography.
Samples of mouse plasma were obtained from heparinized whole bloodcollected 5, 15 and 30 min p.i. of the tracer. To eliminate binding to plasma proteins, the plasma was added to solid urea to give a final concentration of 8M urea. The plasma-urea was loaded into a column switch HPLC system (Hilton 2000), in which the plasma passes through a small capture column (Oasis Sorbent, Waters Corp.), which retains lipophilic solutes, while polar species fail to bind and are detected as they pass through a positron detector. After four minutes, the capture column is free of plasma proteins and polar species. Then, the contents of the capture column was swept onto an analytical column (Prodigy ODS-3, Phenomenex) by 40% acetonitrile, 60% triethylamine acetate buffer pH 4.1 at 1 mL/min, where separation of the parent compound and lipophilic metabolites occurs. The effluent from the analytical column also passes through the positron flow detector. The proportion of each species is determined from the area under each chromatographic peak. Results: Radiochemical purity of the 18F-labeled FBnTP was more than 95%. […] FIG. 1 depicts the chromatogram of plasma collected 30 min p.i., and the parental compound incubated for a similar time period (30 min) in buffered saline. […]

The test system of data set [8] is orthotopic NMU mammary tumor. In words: Uptake in NMU mammary tumor versus healthy gland and FCA inflammation. The format is in vivo. The note with it: NMU-bearing female rats, 60 min after injection, normalized to muscle.
Text: The carcinogen nitrosomethyl urea (NMU) induces carcinoma tumors solely in the mammary gland of female rats. Therefore, the orthotopic NMU mammary tumor is an excellent model for evaluating tracer tumor selectivity by contrasting radioactivity accumulating in mammary gland infested with carcinoma cells and healthy mammary gland. Freund Complete Adjuvant (FCA) is a well_studied inflammation agent in rats Induction of FCA inflammation in NMU-bearing rats allows for direct quantitation of tracer capability to differentiate carcinoma from inflammation.
as §1

Where [9] appears, read: five-fold increases in flow rate / high flow rates.

In the case of `[18F]CCC[P+](c1ccccc1)(c1ccccc1)c1ccccc1` [[18F]FPTP, [^18F]3-fluoropropyltriphenyl-phosphonium ion], in the data set on FCA-induced inflammation, the Inf/Control came out at 0.25 and the “Accumulation, Control” value was 0.29 ± 0.06 % ID/g tissue.
Take Thallium 201: the myocardial extraction entry in data set [1] (baseline / normal flow) is on record as “about 80%”; in data set [1] (setting [9]), “about 60%”.
For the compound `OC[C@H]1OC(O)[C@H]([18F])[C@@H](O)[C@@H]1O` (some centres unmarked) [[^18F]FDG, reference compound], in the data set with FCA-induced inflammation, the Inf/Control is 1.20 and 2.12; the “Accumulation, Control” value was 1.05 ± 0.35 % ID/g tissue and 0.68 ± 0.14 % ID/g tissue.
Consider `[99Tc].[C-]#[N+]CC(C)(C)OC.[C-]#[N+]CC(C)(C)OC.[C-]#[N+]CC(C)(C)OC.[C-]#[N+]CC(C)(C)OC.[C-]#[N+]CC(C)(C)OC.[C-]#[N+]CC(C)(C)OC` [[^99mTc]MIBI, Tc-99m-sestamibii], for which the myocardial extraction result was “about 60%” in data set [1] (baseline / normal flow) and 40% in data set [1] (setting [9]).
Regarding `[11CH3][P+](c1ccccc1)(c1ccccc1)c1ccccc1` [[11C]TPMP, C-11-triphenylmethyl phosphonium], the “decrease of the extraction fraction” value in data set [2] came to 39%.
With `[18F]c1ccc(C[P+](c2ccccc2)(c2ccccc2)c2ccccc2)cc1` [[18F]FBnTP, F-18-fluorobenzyl triphenyl phosphonium], the “MMP-dependent share of cellular uptake” value in data set [3] was found to be 86%. The “Ratio P/B” value in data set [4] (Slices 36-37, ROI1) is listed as 0.62; in data set [4] (Slices 36-37, ROI2) it was 0.91; in data set [4] (Slices 36-37, ROI3) it was 0.85; in data set [4] (Slices 46-49, ROI1), 0.56; in data set [4] (Slices 46-49, ROI2), 0.76; in data set [4] (Slices 46-49, ROI3), 0.82. In data set [4] (dog, 210 bpm for 4 weeks, p<0.001), the “decrease in uptake in the inferior wall after pacing” value is 40-60%. Also, the “washout from the blood pool” value in data set [5] (arterial blood samples) is “rapid washout”. In addition, in [5] (persisted for the remaining scanning time (85 min)), the “time to equilibrium of accumulation in the myocardium” value is “within a few minutes”. The total bone uptake entry in [6] is “minimal bone uptake”. Moreover, the “stable after intravenous injection of the tracer in vivo” value in [7] (mice, plasma radiochromatograms) is recorded as “more than 30 min”. Besides, the “single radio-peak in plasma chromatography, share of total activity” value in data set [7] (mouse plasma collected 5, 15 and 30 min p.i., no other peak observed) came out at 97%. The “uptake in tumor relative to healthy gland” value in [8] is 4 times. Besides, the “uptake in tumor relative to inflammation” value in data set [8] (FCA inflammation 3 days) is 3 times. Also, in the data set with FCA-induced inflammation, the Inf/Control is 0.42. Further, the “Accumulation, Control” value in the data set with FCA-induced inflammation amounted to 0.76 ± 0.21 % ID/g tissue.
